Measured values reported in patent publication US7109354B2, “Thiophene amidines, compositions thereof, and methods of treating complement-mediated diseases and conditions” (3-Dimensional Pharmaceuticals, Inc., priority 2002, dated 2006).
Where “and” joins values, the source holds several entries; their conditions need not be identical. Identical values can stand only once.

Biological target: T1, Activated human C1s (Homo sapiens, UniProt P09871)
T1 construct: purchased Calbiochem (La Jolla, Calif.)
T1 sequence (P09871 438-688 limits assumed): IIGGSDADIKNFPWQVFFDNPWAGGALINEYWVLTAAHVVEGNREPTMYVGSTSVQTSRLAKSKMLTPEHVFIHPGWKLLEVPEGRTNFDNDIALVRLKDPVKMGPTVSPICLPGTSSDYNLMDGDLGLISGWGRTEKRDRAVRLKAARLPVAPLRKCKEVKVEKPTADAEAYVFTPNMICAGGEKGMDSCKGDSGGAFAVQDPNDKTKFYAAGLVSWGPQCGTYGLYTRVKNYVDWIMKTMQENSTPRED
T1 sequence (P09871 16-437 partner limits assumed): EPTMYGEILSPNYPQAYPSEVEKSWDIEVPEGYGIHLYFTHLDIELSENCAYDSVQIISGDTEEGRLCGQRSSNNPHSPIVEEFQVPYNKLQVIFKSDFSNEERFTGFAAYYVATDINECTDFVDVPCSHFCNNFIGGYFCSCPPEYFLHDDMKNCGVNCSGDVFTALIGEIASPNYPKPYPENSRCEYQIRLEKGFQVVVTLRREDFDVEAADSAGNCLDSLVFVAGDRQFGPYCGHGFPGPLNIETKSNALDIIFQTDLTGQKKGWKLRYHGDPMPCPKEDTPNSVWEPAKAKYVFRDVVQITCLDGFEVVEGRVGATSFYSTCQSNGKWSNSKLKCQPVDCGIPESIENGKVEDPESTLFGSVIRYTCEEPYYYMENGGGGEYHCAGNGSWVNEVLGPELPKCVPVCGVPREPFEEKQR
Assay: In vitro inhibition of C1s (Ki determination, C1s-catalyzed hydrolysis of Z-Gly-Arg-S-Bzl, DTNB readout)
Format: biochemical
Settings: substrate Z-Gly-Arg-S-Bzl 45 μM, DTNB 200 μM, C1s 2.3 nM, pH 7.5, 37° C., absorbance at 405 nm
Experimental: Reagents: All buffer salts were obtained from Sigma Chemical Company (St. Louis, Mo.), and were of the highest purity available. DTNB was purchased from Pierce (Rockford, Ill.). Z-Gly-Arg-S-Bzl was purchased from Enzyme Systems Products (Livermore, Calif.). Activated human C1s was purchased from Calbiochem (La Jolla, Calif.).
Test compounds are prepared as a 10 μM solution in DMSO. Dilutions are prepared in DMSO yielding 7 final concentrations encompassing a 700-fold concentration range.
Reactions were initiated by the addition of a 10 μL aliquot of the enzyme, and the absorbance increase at 405 nm is continuously recorded for 15 minutes in a Molecular Devices plate reader. Final DMSO concentration was 4.3%. […] The ratio of the velocity (rate of change in absorbance as a function of time) for a sample containing no test compound is divided by the velocity of a sample containing test compound, and is plotted as a function of test compound concentration. The data are fit to a linear regression, and the value of the slope of the line calculated. The inverse of the slope is the experimentally determined Ki value.

| Structure (SMILES) | Ki |
| --- | --- |
| CSc1sc(C(=N)N)cc1S(=O)(=O)c1cccc(-c2cccc(C(F)(F)F)c2)c1 [Example 63, 5-Methylsulfanyl-4-(3′-trifluoromethyl-biphenyl-3-sulfonyl)-thiophene-2-carboxamidine] | 6 to 23 nM |
| CSc1sc(C(=N)N)cc1S(=O)(=O)c1cccc(-c2cccc(CO)c2)c1 [Example 64, 4-(3′-Hydroxymethyl-biphenyl-3-sulfonyl)-5-methylsulfanyl-thiophene-2-carboxamidine] | 6 to 23 nM |
| CSc1sc(C(=N)N)cc1S(=O)(=O)c1cccc(-c2cccnc2)c1 [Example 70, 5-Methylsulfanyt-4-(3-pyridin-3-yl-benzenesulfonyl)-thiophene-2-carboxamidine] | 6 to 23 nM |
| CSc1sc(C(=N)N)cc1S(=O)(=O)c1cccc(-c2cncnc2)c1 [Example 71, 5-Methylsulfanyl-4-(3-pyrimidin-5-yl-benzenesulfonyl)-thiophene-2-carboxamidine] | 6 to 23 nM |
| CSc1sc(C(=N)N)cc1S(=O)(=O)c1cccc(-c2ccoc2)c1 [Example 72, 4-(3-Furan-3-yl-benzenesulfonyl)-5-methylsulfanyl-thiophene-2-carboxamidine] | 6 to 23 nM |
| COC(=O)c1ccc(-c2cccc(S(=O)(=O)c3cc(C(=N)N)sc3SC)c2)cc1 [Example 74, 3′-(5-Carbamimidoyl-2-methylsulfanyl-thiophene-3-sulfonyl)-biphenyl-4-carboxylic acid methyl ester] | 6 to 23 nM |
| CSc1sc(C(=N)N)cc1S(=O)(=O)c1cccc(-c2cc(C)cc(C)c2)c1 [Example 75, 4-(3′,5′-Dimethyl-biphenyl-3-sulfonyl)-5-methylsulfanyl-thiophene-2-carboxamidine] | 6 to 23 nM |

Results, then the molecule that gave them:

| Ki | Structure (SMILES) |
| --- | --- |
| 6 to 23 nM | CSc1sc(C(=N)N)cc1S(=O)(=O)c1cccc(-c2ccc3cccnc3c2)c1 [Example 59, 5-Methylsulfanyl-4-(3-quinolin-7-yl-benzenesulfonyl)-thiophene-2-carboxamidine] |
| 6 to 23 nM | CSc1sc(C(=N)N)cc1S(=O)(=O)c1cccc(-c2cccc(C)c2)c1 [Example 60, 4-(3′-methyl-biphenyl-3-sulfonyl)-5-methylsulfanyl-thiophene-2-carboxamidine] |
| 6 to 23 nM and 6 nM | CSc1sc(C(=N)N)cc1S(=O)(=O)c1cccc(-c2cccc(C=O)c2)c1 [Example 61, 4-(3′-Formyl-biphenyl-3-sulfonyl)-5-methylsulfanyl-thiophene-2-carboxamidine] |
| 6 to 23 nM | CSc1sc(C(=N)N)cc1S(=O)(=O)c1cccc(-c2cccc(N)c2)c1 [Example 62, 4-(3′-Amino-biphenyl-3-sulfonyl)-5-methylsulfanyl-thiophene-2-carboxamidine] |
| 6 to 23 nM | CSc1sc(C(=N)N)cc1S(=O)(=O)c1cccc(-c2cccc(-c3ccccc3)c2)c1 [Example 65, 5-Methylsulfanyl-4-([1,1′;3′,1″]terphenyl-3-sulfonyl)-thiopbene-2-carboxamidine] |
| 6 to 23 nM | CSc1sc(C(=N)N)cc1S(=O)(=O)c1cccc(-c2cccc3c2oc2ccccc23)c1 [Example 66, 4-(3-Dibenzofuran-4-yl-benzenesulfonyl)-5-methylsulfanyl-thiophene-2-carboxamidine] |
| 6 to 23 nM | CSc1sc(C(=N)N)cc1S(=O)(=O)c1cccc(-c2ccccc2C(F)(F)F)c1 [Example 67, 5-Methylsulfanyl-4-(2′-trifluoromethyl-biphenyl-3-sulfonyl)-thiophene-2-carboxamidine] |
| 6 to 23 nM | CSc1sc(C(=N)N)cc1S(=O)(=O)c1cccc(-c2ccccc2CO)c1 [Example 68, 4-(2′-Hydroxymethyl-biphenyl-3-sulfonyl)-5-methylsulfanyl-thiophene-2-carboxamidine] |
| 6 to 23 nM | CSc1sc(C(=N)N)cc1S(=O)(=O)c1cccc(-c2ccccc2Cl)c1 [Example 69, 4-(2′-Chloro-biphenyl-3-sulfonyl)-5-methylsulfanyl-thiophene-2-carboxamidine] |
| 6 to 23 nM | CSc1sc(C(=N)N)cc1S(=O)(=O)c1cccc(-c2cnc3ccccc3c2)c1 [Example 73, 5-Methylsulfanyl-4-(3-quinolin-3-yl-benzenesulfonyl)-thiophene-2-carboxamidine] |
